From US6713633B1, “Compounds capable of cleaving double-stranded DNA and method of utilization of the same” (Japan Science and Technology Corporation, priority 1999, dated 2004)

Legend:
HeLaS3 cells = experiment: Growth Inhibitory Test on HeLaS3 Cells; type: cell-based; conditions: Homo sapiens, HeLa S3, 72 hours incubation, cell counts
Procedure: Cytotoxic activity of the compound of the present invention based on the properties described hereinbefore was examined. Cytotoxic activities of PyPyLDu86 and ImPyLDu86 of the present invention and known anticancer agent duocarmycin on HeLaS3 cells (uterocervical squamous cell carcinoma cells) were tested.
Suspension 0.75 ml of HeLaS3 cells, 2.67×10^4 cells/ml, in MEM medium containing 10% fetal bovine serum and 2 mM glutamine, was dispensed into each well in 24 cell culture plate. After incubation in the CO2-incubator at 37° C. for overnight, 0.25 ml portions of each test compound shown in Table 1, which was appropriately diluted with medium, was added into each well.
After cells were incubated for 72 hours in the CO2-incubator, the culture supernatant was removed, and cells were dispersed using trypsin-ethylenediaminetetraacetic acid (EDTA) and collected. Cell counts were counted by cell counter, and cell counts without treatment and cell counts treated with known concentration of test compound were compared to calculate the concentration of test compound which inhibits 50% of cell growth (IC50).

[1] = tested on: 5′-end texas red-modified 450 bp DNA fragments pUC18 F780*-1229 and pUC18 R1459*-1908; experiment: Alkylation of 450 bp DNA fragments (thermally induced strand cleavage, high-resolution gel electrophoresis); type: biochemical
Description: Reactivities of the thus synthesized PyPyLDu86 and ImPyLDu86 with DNA were investigated.
The left electrophoresis pattern is a result of the upper strand of the double-strand DNA, and the right electrophoresis pattern is a result of the lower strand of the double-strand DNA. […] No compounds have been known to occur such the cleavage, and in this sense, the compound of the present invention can be said as an artificial restriction enzyme.
(1) Preparation of 5′-texas red-end-modified 450 bp DNA fragment
The 5′-end texas red-modified 450 bp DNA fragments pUC18 F780*-1229 and pUC18 R1459*-1908 (these are complementary) were prepared by the PCR method using 5′-end texas red-modified 18mers as primers and purified by filtration using Suprec-02. The concentration was determined by ethidium bromide staining. The asterisk (*) indicates texas red modification site, and numerals indicates nucleotide numbering from the replication origin.
(2) High-resolution gel electrophoresis
A standard reaction mixture containing 5′-end texas red-labeled DNA fragment 60 nM, DMF 5% (v/v) and various concentrations of drugs in total 10 μl of sodium phosphate buffer (pH 7.0) 12.5 mM was added into microcentrifugal tube (Eppendorf tube) and allowed to stand at room temperature for overnight. Calf thymus DNA (5 mM, 1 μl) was added thereto and heated at 90° C. for 5 minutes. DNA was collected by ethanol precipitation. […]

Structure (SMILES)	IC50 (HeLaS3 cells) [nM]	efficiency of cleavage ([1]; double-strand DNA cleavage, calculated by an amount of used ImPyLDu86) [%]	cleavage of the double-strand DNA (sites) ([1]; upper and lower strand, thermally induced strand cleavage, from the lower concentration)
COC(=O)c1cc2c([nH]1)C(=O)C=C1N(C(=O)c3cc4cc(OC)c(OC)c(OC)c4[nH]3)C[C@H]3C[C@]123 [Duocaraycin, duocarmycin, reference compound]	4.7		
COC(=O)c1c(C)[nH]c2c1C13CC1CN(C(=O)/C=C/c1cc(NC(=O)c4nc(NC(C)=O)cn4C)cn1C)C3=CC2=O (centres unmarked) [ImPyLDu86]	0.7	~70	mainly cleaved at the site 1 and the site 2 of the two strands
COC(=O)c1c(C)[nH]c2c1C13CC1CN(C(=O)/C=C/c1cc(NC(=O)c4cc(NC(C)=O)cn4C)cn1C)C3=CC2=O (centres unmarked) [PyPyLDu86]	1.5		
